In patent US20260210939A1, “MODIFIED OLFACTORY RECEPTORS” (GIVAUDAN SA, priority 2022, published 2026):
“Also recorded” adds a separate entry of the source.

How the values were obtained:
[1] = tested on: library of all human class I OR; assay: Screening of the library of all class I OR (n=77, C-terminal domain SEQ ID NO: 741) with carboxylic acids, luciferase induction; type: cell-based; conditions: full library of class I OR
Description: All human class I OR and all key genetic variants of these OR were synthesized with a sequence coding for the identical C-terminal domain […] (SEQ ID NO: 741) in the vector pcDNA3.1(+) to generate a library of all class I OR with an improved C-terminal domain.
Parallel transfection experiments were conducted with all these plasmids (n=77, SEQ ID NO: 760, OR51F1 was excluded due to poor plasmid yield) and cells expressing the different OR were stimulated with one given ligand at a time. In total 10 different carboxylic acids ligands were tested on the full library of class I receptors.

OR52E8 = molecular target: T1, OR52E8 (Homo sapiens, UniProt Q6IFG1); type: cell-based
T1 construct: Improved functional expression of modified OR-genes containing the truncated, optimized C-terminus; expressed in transfected cells; host or cells: HEK293T stably expressing human RTP1S(V227I) and RTP2(L220R)
T1 sequence (Q6IFG1 with tags, fused parts or gaps): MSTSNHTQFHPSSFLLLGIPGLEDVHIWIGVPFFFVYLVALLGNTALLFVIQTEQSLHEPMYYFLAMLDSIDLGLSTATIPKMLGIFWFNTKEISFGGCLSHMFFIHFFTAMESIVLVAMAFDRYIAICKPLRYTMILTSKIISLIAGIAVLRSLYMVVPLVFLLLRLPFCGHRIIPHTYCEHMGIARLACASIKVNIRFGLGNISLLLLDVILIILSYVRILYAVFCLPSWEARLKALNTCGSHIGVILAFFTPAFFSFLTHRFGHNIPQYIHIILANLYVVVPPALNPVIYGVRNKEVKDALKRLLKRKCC
Excerpt: Activation of OR52E8 by odorant acids present in human sweat (Natsch et al. A specific bacterial aminoacylase cleaves odorant precursors secreted in the human axilla. The Journal of biological chemistry 2003; 278(8):5718-5727) was investigated with different variants of the parent receptor sequence. The wild-type variant was not activated by the acids. […] However, using the optimized sequence from Examples 1-5 led to a strong signal upon addition of 3-methyl-3-hydroxy hexanoic acid.
These two improvements were further combined and the combination was tested on OR52A5 and two further class I receptors. […] In the case of OR52A4, 4-ethyloctanoic acid, which is detected at low concentrations by the human nose, is detected with a high luciferase response already at 0.19 μM by the receptor with the C-terminal modification showing very sensitive detection of this carboxylic acid by the modified class I receptor.

OR10J5 [2] = molecular target: T2, OR10J5 (Homo sapiens, UniProt Q8NHC4); type: cell-based; conditions: for EC20%: OR10J5 with SEQ ID NO: 86, relative to positive control 100 μM Mahonial
T2 construct: Improved functional expression of modified OR-genes containing the truncated, optimized C-terminus; expressed in transfected cells; host or cells: HEK293T stably expressing human RTP1S(V227I) and RTP2(L220R)
T2 sequence (Q8NHC4 with tags, fused parts or gaps): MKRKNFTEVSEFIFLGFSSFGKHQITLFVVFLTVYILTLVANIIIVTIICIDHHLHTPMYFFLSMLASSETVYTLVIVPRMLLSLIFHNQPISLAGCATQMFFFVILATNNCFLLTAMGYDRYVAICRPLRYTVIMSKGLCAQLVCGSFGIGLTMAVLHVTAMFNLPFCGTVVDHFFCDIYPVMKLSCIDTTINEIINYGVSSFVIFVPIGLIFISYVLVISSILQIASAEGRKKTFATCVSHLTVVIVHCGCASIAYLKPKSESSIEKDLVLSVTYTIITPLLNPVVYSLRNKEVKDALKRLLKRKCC
Description: Activation of OR10J5 with the C-terminal domain of SEQ ID NO: 86 by (S,E)-10-hydroxy-4,8-dimethyldec-4-enal or (R,E)-10-hydroxy-4,8-dimethyldec-4-enal was measured in a dose-response analysis.
Potency of the two tested OR10J5 ligands is expressed as the EC20% value, which is the concentration that leads to a 20% increase of the luciferase activity relative to the positive control (100 μM, Mahonial; (4E)-9-hydroxy-5,9-dimethyl-4-Decenal). […] Because of the difference in EC20%, a much lower concentration of the (S,E)-isomer is needed to activate the receptor compared to the concentration needed of the (R,E)-isomer. […] This example further illustrates the usefulness of the improved assay to determine the most odor-active isomers.

OR4S2 = molecular target: T3, OR4S2 (Homo sapiens, UniProt Q8NH73, A290K); assay: cell-based; type: cell-based
T3 construct: Improved functional expression of modified OR-genes containing the truncated, optimized C-terminus; expressed in transfected cells; host or cells: HEK293T stably expressing human RTP1S(V227I) and RTP2(L220R)
T3 sequence (Q8NH73 with tags, fused parts or gaps A290K): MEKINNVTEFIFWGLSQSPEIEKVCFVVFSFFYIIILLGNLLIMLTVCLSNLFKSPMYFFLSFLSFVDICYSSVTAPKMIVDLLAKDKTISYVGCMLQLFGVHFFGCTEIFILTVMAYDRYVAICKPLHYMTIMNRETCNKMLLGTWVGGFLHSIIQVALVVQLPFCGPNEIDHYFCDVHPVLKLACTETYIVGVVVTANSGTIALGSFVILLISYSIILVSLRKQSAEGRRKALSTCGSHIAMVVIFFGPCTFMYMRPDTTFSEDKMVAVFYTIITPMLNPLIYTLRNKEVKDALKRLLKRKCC

OR1C1 = molecular target: T4, OR1C1 (Homo sapiens, UniProt Q15619); type: cell-based; conditions: changed C-term. vs wild-type
T4 construct: Improved functional expression of modified OR-genes containing the truncated, optimized C-terminus; expressed in transfected cells; host or cells: HEK293T stably expressing human RTP1S(V227I) and RTP2(L220R)
T4 sequence (Q15619 with tags, fused parts or gaps): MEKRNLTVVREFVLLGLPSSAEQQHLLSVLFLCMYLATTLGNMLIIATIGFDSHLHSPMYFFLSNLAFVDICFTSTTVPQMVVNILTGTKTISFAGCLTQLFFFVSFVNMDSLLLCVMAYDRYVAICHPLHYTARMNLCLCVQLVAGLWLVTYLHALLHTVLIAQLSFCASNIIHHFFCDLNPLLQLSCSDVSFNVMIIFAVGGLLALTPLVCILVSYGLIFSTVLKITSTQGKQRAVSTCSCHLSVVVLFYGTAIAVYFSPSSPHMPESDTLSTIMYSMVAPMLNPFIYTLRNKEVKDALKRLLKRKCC

OR10J5 [3] = molecular target: T2, OR10J5; type: cell-based; conditions: changed C-term. vs wild-type
OR5A2 = molecular target: T5, OR5A2 (Homo sapiens, UniProt Q8NGI9); assay: CRE-luciferase assay, HEK293T cells expressing OR5A2 (wild-type / modified C-terminus); type: cell-based
T5 construct: Improved functional expression of modified OR-genes containing the truncated, optimized C-terminus; expressed in transfected cells; host or cells: HEK293T with stably integrated human RTP1S(V227I) and RTP2(L220R)
T5 sequence (Q8NGI9 with tags, fused parts or gaps): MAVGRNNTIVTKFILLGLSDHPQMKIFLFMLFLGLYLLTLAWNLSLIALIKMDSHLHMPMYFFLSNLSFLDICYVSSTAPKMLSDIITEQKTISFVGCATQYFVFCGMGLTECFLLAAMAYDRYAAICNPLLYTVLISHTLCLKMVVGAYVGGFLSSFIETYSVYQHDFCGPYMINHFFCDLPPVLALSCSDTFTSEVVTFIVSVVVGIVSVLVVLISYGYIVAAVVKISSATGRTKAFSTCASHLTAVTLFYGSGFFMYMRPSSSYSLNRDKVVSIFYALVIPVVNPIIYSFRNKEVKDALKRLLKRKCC

OR5AN1 = molecular target: T6, OR5AN1 (Homo sapiens, UniProt Q8NGI8); assay: Luciferase assay with chimeric OR5AN1 carrying the C-terminal sequence of OR1N2; type: cell-based
T6 construct: Lucy part is a cleavable signal peptide) (N); expressed in transfected cells
T6 sequence (Q8NGI8 with tags, fused parts or gaps limits assumed): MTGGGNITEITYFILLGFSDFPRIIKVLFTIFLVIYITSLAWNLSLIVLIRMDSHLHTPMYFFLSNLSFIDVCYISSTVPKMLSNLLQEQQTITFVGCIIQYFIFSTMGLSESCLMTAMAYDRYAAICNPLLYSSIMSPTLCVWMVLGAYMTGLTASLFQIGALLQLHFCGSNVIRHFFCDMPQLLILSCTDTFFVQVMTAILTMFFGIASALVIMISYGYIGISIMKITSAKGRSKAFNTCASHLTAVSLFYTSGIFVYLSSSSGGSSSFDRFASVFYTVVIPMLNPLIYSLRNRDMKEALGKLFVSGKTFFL
Excerpt: Similarly, the C-terminal sequence of OR5AN1 was replaced with the C-terminal sequence of the ambrettolide receptor OR1N2.

[4] = tested on: library of all human class II OR; assay: Screening of the library of all class II OR (n=408, C-terminal domain SEQ ID NO: 221) with single odorants, luciferase induction; type: cell-based
Description: All human class II OR and all key genetic variants of these OR were synthesized with a sequence coding for an identical modified C-terminal domain […] (SEQ ID NO: 221) in the vector pcDNA3.1(+) to generate a library of all class II OR with an improved C-terminal domain.
Parallel transfection experiments were conducted with all these plasmids (n=408) and cells expressing the different OR were stimulated with one given ligand at a time, tested at the maximal, clearly non-cytotoxic concentration. In total 26 different ligands were tested on the full library of class II receptors.

[5] = tested on: human class II OR identified in the library screening; assay: Confirmatory dose-response analysis of library-hit OR with cognate ligand, wild-type vs C-terminal domain SEQ ID NO: 221 (Table 17);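 note: Wild-type receptor sequences expressed from the pcDNA3.1(+) vector and compared with the C-terminally modified receptors in dose-response tests using each receptor's cognate ligand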
Description: Selected ligand—OR pairs were then tested in a confirmatory test with a dose response analysis.
For selected receptors, the wild-type sequence was synthesized and cloned into pcDNA3.1 (+). Dose-response analysis with the cognate ligand was then performed for both the wild-type and the modified sequence.

[6] = tested on: library of human class II OR; assay: Screening of the class II OR library with a mixture of odorants of one odor description; type: cell-based; conditions: OR with C-terminal domain SEQ ID NO: 221
Excerpt: Single odorants may trigger activation of multiple OR as shown by the case of Ambrofix in example 18, which activates the specific receptors OR7E24 and OR7A17. On the other hand, multiple odorants may be perceived as and described by certain common odor descriptors due to their common activation of a given set of OR. To trigger a specific odor sensation, thus a specific set of OR may need to be activated. This specific OR set can be identified by mixing several odorants with a given odor description. The mixture is then screened on the full library of OR. The identified set of OR can then be further used to screen for that particular odor description. For example, to identify a typical set of OR for the odor description of “fruity esters”, a mixture of the following compounds was made: Pentanoic acid, 2-methyl ethyl ester; Butanoic acid, 3-methyl-, ethyl ester; Acetic acid, phenoxy-, 2-propenyl ester; Hexanoic acid, ethyl ester; Acetic acid, (3-methylbutoxy)-, 2-propenyl ester; Acetic acid, (cyclohexyloxy)-, 2-propenyl ester; Butanoic acid, 2-methyl-, (3Z/E)-3-hexenyl ester; Cyclohexanecarboxylic acid, ethyl ester and Oxiranecarboxylic acid, 3-phenyl, ethyl ester. This mixture was screened against the full library of OR as described in example 18. […]

## CCC=C(C)C(=O)O [2-Methyl-2-pentenoic acid]
[1]
  Activated OR and OR variants: No activation observed

## CCCC(C)=CC(=O)O [3-Methyl-2-hexenoic acid]
[1]
  Activated OR and OR variants: strong induction of the OR51B2(C120R, L134F, C209S) variant but not of the wild-type variant of OR51B2

## CCCC(C)(O)CC(=O)O (stereo not drawn) [3-Methyl-3-Hydroxy-Hexanoic acid, 3-Methyl-3-hydroxyhexanoic acid]
OR52E8
  Comments on efficacy: No induction
OR52E8; changed C-term. vs wild-type
  Fold-improvement potency: >>5
  Fold-improvement threshold: >>5

## CC(C)CC(=O)O [3-Methylbutanoic acid]
[1]
  Activated OR and OR variants: No activation observed

## C/C(=C\CC[C@@H](C)CCO)CCC=O [(R,E)-10-hydroxy-4,8-dimethyldec-4-enal]
OR10J5 [2]
  EC20%: 24.4 µM

## C/C(=C\CC[C@H](C)CCO)CCC=O [(S,E)-10-hydroxy-4,8-dimethyldec-4-enal]
OR10J5 [2]
  EC20%: 10.1 µM

## c1ccc2scnc2c1 [Benzothiazole]
OR4S2
  Comments on efficacy: 2-fold lower
OR4S2; changed C-term. vs wild-type
  Fold-improvement potency: 1.3
  Fold-improvement threshold: 2.4
OR4S2; wild-type
  EC50: 137 µM

## C=CC(C)(O)CCC=C(C)C (stereo not drawn) [Linalool]
OR1C1
  Fold-improvement potency: 1.9
  Fold-improvement threshold: 2.1

## C/C(=C\CCC=O)CCCC(C)(C)O [Mahonial, (4E)-9-hydroxy-5,9-dimethyl-4-Decenal]
OR10J5 [3]
  Fold-improvement potency: 2.3

## C[C@@H]1CCCCCCCCCCCCC(=O)C1 [Muscone, reference compound]
OR5A2; OR5A2 with modified C-terminus
  concentration at which induction starts: 0.03 µM
OR5A2; modified OR5A2, SEQ ID NO: 86
  concentration at which activation occurs: 1 µM
OR5AN1
  functional response of chimeric OR5AN1: not showing any functional response
[4]; ligand at maximal non-cytotoxic concentration, full class II library
  Activated OR and OR variants: OR5AN1, OR5A2

## CC(=O)c1c(C)c([N+](=O)[O-])c(C(C)(C)C)c([N+](=O)[O-])c1C [Musk ketone]
OR5AN1
  functional response of chimeric OR5AN1: not showing any functional response

## Cc1cc(CC(C)C)ccc1CCC=O [Nympheal, 3-(4-isobutyl-2-methylphenyl)propanal]
OR10J5 [2]
  Comments on efficacy: Only 1.8-fold
OR10J5 [3]
  Fold-improvement potency: >>6
  Fold-improvement threshold: >>6

## C[C@H]1CC[C@@]2(O)C(C)(C)[C@@H]3CC[C@@]2(C)[C@H]1C3 [Patchoulol]
[5]; OR14J1, modified C-terminus SEQ ID NO: 221 (SEQ ID NO: 738)
  Detection threshold; concentration for 2-fold induction, changed C-term.: 0.45 µM
[5]; OR14J1, modified C-terminus SEQ ID NO: 221 vs wild-type, maximal induction
  Fold improvement efficacy: 33.4 fold
[5]; read-out: Potency, EC50 changed C-term, OR14J1, modified C-terminus SEQ ID NO: 221 (SEQ ID NO: 738)
  EC50: 2.2 µM
[5]; wild-type sequence, cognate ligand
  activity of the wild-type OR: inactive
[4]; 50 μM Patchoulol
  induction in the library screening: strong induction of OR14J1; also recorded: weak induction of OR11A1 and OR7A17

B1: OR2L5: class II OR with C-terminal domain SEQ ID NO: 221 (protein, UniProt Q8NG80 1-312, looked up)
Olfactory receptor 2L5: MENYNQTSTDFILLGLFPPSKIGLFLFILFVLIFLMALIGNLSMILLIFLDTHLHTPMYFLLSQLSLIDLNYISTIVPKMASDFLYGNKSISFIGCGIQSFFFMTFAGAEALLLTSMAYDRYVAICFPLHYPIRMSKRMYVLMITGSWMIGSINSCAHTVYAFRIPYCKSRAINHFFCDVPAMLTLACTDTWVYEYTVFLSSTIFLVFPFTGIACSYGWVLLAVYRMHSAEGRKKAYSTCSTHLTVVTFYYAPFAYTYLCPRSLRSLTEDKVLAVFYTILTPMLNPIIYSLRNKEVMGALTRVIQNIFSVKM
[6]
  Fold luciferase induction (20 ppm fruity ester mix): 8.9

B2: OR11G2: class II OR with C-terminal domain SEQ ID NO: 221 (protein, UniProt Q8NGC1 1-345, looked up)
Olfactory receptor 11G2: MHFLSQNDLNINLIPHLCLHRHSVIAGAFTIHRHMKIFNSPSNSSTFTGFILLGFPCPREGQILLFVLFTVVYLLTLMGNGSIICAVHWDQRLHAPMYILLANFSFLEICYVTSTVPSMLANFLSDTKIISFSGCFLQFYFFFSLGSTECFFLAVMAFDRYLAICRPLRYPTIMTRRLCTNLVVNCWVLGFIWFLIPIVNISQMSFCGSRIIDHFLCDPAPLLTLTCKKGPVIELVFSVLSPLPVFMLFLFIVGSYALVVRAVLRVPSAAGRRKAFSTCGSHLAVVSLFYGSVLVMYGSPPSKNEAGKQKTVTLFYSVVTPLLNPVIYSLRNKDMRKALKKFWGT
[6]
  Fold luciferase induction (20 ppm fruity ester mix): 7.2
